{"source": "patent EP2385948B1", "about": "“FUSED THIAZOLO AND OXAZOLO PYRIMIDINONES” (Torrent Pharmaceuticals Limited, priority 2009, dated 2011)", "data": [{"system": "erythropoietin", "assay": "In vitro erythropoietin induction (ELISA of cell culture supernatant)", "conditions": "Hep3B cell line, 50 uM, 16 hours, relative to vehicle control", "experimental": "Hep3B cell line (ATCC HB8064) was employed. Induction of erythropoietin was carried out for the indicated dose of compounds for 16 hours duration. At the end of 16 hours, cell culture medium was collected and centrifuged to remove any debris. Supernatant obtained was analyzed for erythropoietin by ELISA (R&D systems, USA). The results were expressed as fold induction as compared to vehicle control.", "values": [{"smiles": "O=C([O-])CNC(=O)c1c(O)nc2sc3c(n2c1=O)CCCC3.[Na+]", "EPO fold induction": "++ (++ indicates 2-4 fold)"}, {"smiles": "O=C(O)CNC(=O)c1c(O)nc2sc3c(n2c1=O)CCCC3", "note": "[Compound 1, [(2-Hydroxy-4-oxo-5,6,7,8-tetrahydro-4H-9-thia-1,4a-diaza-fluorene-3-carbonyl)-amino]-acetic acid]", "EPO fold induction": "+++ (+++ indicates 5-8 fold)"}]}, {"system": "erythropoietin", "assay": "In vitro erythropoietin induction (ELISA of cell culture supernatant)", "conditions": "Homo sapiens, Hep3B, 16 h, read-out: EPO fold induction, Hep3B cell line, 50 uM, 16 hours, relative to vehicle control", "values": [{"smiles": "O=C(O)CNC(=O)c1c(O)nc2sc3c(n2c1=O)CCN(Cc1cc(C(F)(F)F)cc(C(F)(F)F)c1)C3", "note": "[Compound 46, {[7-(3,5-Bis-trifluoromethyl-benzyl)-2-hydroxy-4-oxo-5,6,7,8-tetrahydro-4H-9-thia-1,4a,7-triaza-fluorene-3-carbonyl]-amino}-acetic acid]", "fold induction at 50 µM": "2 to 4"}]}, {"system": "erythropoietin", "assay": "In vitro erythropoietin induction (ELISA of cell culture supernatant)", "conditions": "Homo sapiens, Hep3B, 16 h, read-out: EPO fold induction, Hep3B cell line, 200 uM, 16 hours, relative to vehicle control", "values": [{"smiles": "CC(C)NC(=S)N1CCc2c(sc3nc(O)c(C(=O)NCC(=O)O)c(=O)n23)C1", "note": "[Compound 25, [(2-Hydroxy-7-isopropylthiocarbamoyl-4-oxo-5,6,7,8-tetrahydro-4H-9-thia-1,4a,7-triaza-fluorene-3-carbonyl)-amino]-acetic acid]", "fold induction at 200 µM": "2 to 4"}, {"smiles": "COc1ccc(CN2CCc3c(sc4nc(O)c(C(=O)NCC(=O)O)c(=O)n34)C2)cc1", "note": "[Compound 31, {[2-Hydroxy-7-(4-methoxy-benzyl)-4-oxo-5,6,7,8-tetrahydro-4H-9-thia-1,4a,7-triaza-fluorene-3-carbonyl]-amino}-acetic acid]", "fold induction at 200 µM": "5 to 8"}, {"smiles": "CC(C)S(=O)(=O)N1CCc2c(sc3nc(O)c(C(=O)NCC(=O)O)c(=O)n23)C1", "note": "[Compound 5, {[2-Hydroxy-4-oxo-7-(propane-2-sulfonyl)-5,6,7,8-tetrahydro-4H-9-thia-1,4a,7-triaza-fluorene-3-carbonyl]-amino}-acetic acid]", "fold induction at 200 µM": "2 to 4"}, {"smiles": "O=C(O)CNC(=O)c1c(O)nc2sc3c(n2c1=O)CCN(C(=O)c1ccc(Cl)nc1)C3", "note": "[Compound 33, {[7-(6-Chloro-pyridine-3-carbonyl)-2-hydroxy-4-oxo-5,6,7,8-tetrahydro-4H-9-thia-1,4a,7-triaza-fluorene-3-carbonyl]-amino}-acetic acid]", "fold induction at 200 µM": "2 to 4"}, {"smiles": "O=C(O)CNC(=O)c1c(O)nc2sc3c(n2c1=O)CCN(c1ccc(Cl)nn1)C3", "note": "[Compound 35, {[7-(6-Chloro-pyridazin-3-yl)-2-hydroxy-4-oxo-5,6,7,8-tetrahydro-4H-9-thia-1,4a,7-triaza-fluorene-3-carbonyl]-amino}-acetic acid]", "fold induction at 200 µM": "< 2"}, {"smiles": "O=C(O)CNC(=O)c1c(O)nc2sc3c(n2c1=O)CCC(NC(=O)c1ccccc1)C3", "note": "(centres unmarked) [Compound 56, [(7-Benzoylamino-2-hydroxy-4-oxo-5,6,7,8-tetrahydro-4H-9-thia-1,4a-diaza-fluorene-3-carbonyl)-amino]-acetic acid]", "fold induction at 200 µM": "< 2"}, {"smiles": "O=C(O)CNC(=O)c1c(O)nc2sc3c(n2c1=O)CCN(c1ccc(C(F)(F)F)cn1)C3", "note": "[Compound 18, {[2-Hydroxy-4-oxo-7-(5-trifluoromethyl-pyridin-2-yl)-5,6,7,8-tetrahydro-4H-9-thia-1,4a,7-triaza-fluorene-3-carbonyl]-amino}-acetic acid]", "fold induction at 200 µM": "9 to 16"}, {"smiles": "O=C(O)CNC(=O)c1c(O)nc2sc3c(n2c1=O)CCC1(CC1)C3", "note": "[Compound 70, N-[(2'-hydroxy-4'-oxo-6',9'-dihydro-4'H,7'H-spiro[cyclopropane-1,8'-pyrimido[2,1-b][1,3]benzothiazol]-3'-yl)carbonyl]glycine]", "fold induction at 200 µM": "2 to 4"}, {"smiles": "CC(C)CC(=O)N1CCc2c(sc3nc(O)c(C(=O)NCC(=O)O)c(=O)n23)C1", "note": "[Compound 4, {[2-Hydroxy-7-(3-methyl-butyryl)-4-oxo-5,6,7,8-tetrahydro-4H-9-thia-1,4a,7-triaza-fluorene-3-carbonyl]-amino}-acetic acid]", "fold induction at 200 µM": "2 to 4"}, {"smiles": "CC1(C)CCc2c(sc3nc(O)c(C(=O)N[C@H](C(=O)O)c4ccccc4)c(=O)n23)C1", "note": "[Compound 55, [(2-Hydroxy-7,7-dimethyl-4-oxo-5,6,7,8-tetrahydro-4H-9-thia-1,4a-diaza-fluorene-3-carbonyl)-amino]-phenyl-acetic acid, L-isomer]", "fold induction at 200 µM": "< 2"}, {"smiles": "CC(C)(C)C1CCc2c(sc3nc(O)c(C(=O)NCC(=O)O)c(=O)n23)C1", "note": "(centres unmarked) [Compound 13, [(7-tert-Butyl-2-hydroxy-4-oxo-5,6,7,8-tetrahydro-4H-9-thia-1,4a-diaza-fluorene-3-carbonyl)-amino]-acetic acid]", "fold induction at 200 µM": "< 2"}, {"smiles": "O=C(O)CNC(=O)c1c(O)nc2sc3c(n2c1=O)CCN(C(=O)Nc1ccccc1)C3", "note": "[Compound 8, [(2-Hydroxy-4-oxo-7-phenylcarbamoyl-5,6,7,8-tetrahydro-4H-9-thia-1,4a,7-triaza-fluorene-3-carbonyl)-amino]-acetic acid]", "fold induction at 200 µM": "2 to 4"}, {"smiles": "O=C(O)CNC(=O)c1c(O)nc2sc3c(n2c1=O)CCN(C(=S)Nc1ccc(F)cc1)C3", "note": "[Compound 24, {[7-(4-Fluoro-phenylthiocarbamoyl)-2-hydroxy-4-oxo-5,6,7,8-tetrahydro-4H-9-thia-1,4a,7-triaza-fluorene-3-carbonyl]-amino}-acetic acid]", "fold induction at 200 µM": "5 to 8"}, {"smiles": "O=C(O)CNC(=O)c1c(O)nc2sc3c(n2c1=O)CCC(C(=O)O)C3", "note": "(centres unmarked) [Compound 72, 3-(Carboxymethyl-carbamoyl)-2-hydroxy-4-oxo-5,6,7,8-tetrahydro-4H-9-thia-1,4a-diaza-fluorene-7-carboxylic acid]", "fold induction at 200 µM": "< 2"}, {"smiles": "O=C(O)CCNC(=O)c1c(O)nc2sc3c(n2c1=O)CCCCC3", "note": "[Compound 30, 3-[(2-Hydroxy-4-oxo-6,7,8,9-tetrahydro-4H,5H-10-thia-1,4a-diaza-benzo[a]azulene-3-carbonyl)-amino]-propionic acid]", "fold induction at 200 µM": "< 2"}, {"smiles": "CN(CC(=O)O)C(=O)c1c(O)nc2sc3c(n2c1=O)CCC(C)(C)C3", "note": "[Compound 61, [(2-Hydroxy-7,7-dimethyl-4-oxo-5,6,7,8-tetrahydro-4H-9-thia-1,4a-diaza-fluorene-3-carbonyl)-methyl-amino] -acetic acid]", "fold induction at 200 µM": "< 2"}, {"smiles": "O=C(O)CNC(=O)c1c(O)nc2sc3c(n2c1=O)CCN(C(=O)C1CC1)C3", "note": "[Compound 9, [(7-Cyclopropanecarbonyl-2-hydroxy-4-oxo-5,6,7,8-tetrahydro-4H-9-thia-1,4a,7-triaza-fluorene-3-carbonyl)-amino]-acetic acid]", "fold induction at 200 µM": "5 to 8"}, {"smiles": "CCCCc1ccc(C(=O)N2CCc3c(sc4nc(O)c(C(=O)NCC(=O)O)c(=O)n34)C2)cc1", "note": "[Compound 21, {[7-(4-Butyl-benzoyl)-2-hydroxy-4-oxo-5,6,7,8-tetrahydro-4H-9-thia-1,4a,7-triaza-fluorene-3-carbonyl]-amino}-acetic acid]", "fold induction at 200 µM": "9 to 16"}, {"smiles": "Cc1ccc(S(=O)(=O)N2CCc3c(sc4nc(O)c(C(=O)NCC(=O)O)c(=O)n34)C2)cc1", "note": "[Compound 7, {[2-Hydroxy-4-oxo-7-(toluene-4-sulfonyl)-5,6,7,8-tetrahydro-4H-9-thia-1,4a,7-triaza-fluorene-3-carbonyl]-amino}-acetic acid]", "fold induction at 200 µM": "2 to 4"}, {"smiles": "O=C(O)CNC(=O)c1c(O)nc2sc3c(n2c1=O)CCN(C(=O)CC1CCCC1)C3", "note": "[Compound 29, {[7-(2-Cyclopentyl-acetyl)-2-hydroxy-4-oxo-5,6,7,8-tetrahydro-4H-9-thia-1,4a,7-triaza-fluorene-3-carbonyl]-amino}-acetic acid]", "fold induction at 200 µM": "9 to 16"}]}]}
